System: subjects with PAH
Assay: Example 1 (ARIES-2) placebo-controlled Phase III trial, efficacy
Type: in vivo, human
Settings: for Change in 6MWD from baseline to Week 12, mean / Week 12 6MWD, mean: ITT population; for Change in SF-36 Bodily pain, mean (SD) / Change in SF-36 General health, mean (SD) / Change in SF-36 Mental component summary, mean (SD) / Change in SF-36 Mental health, mean (SD) / Change in SF-36 Physical component summary, mean (SD) / Change in SF-36 Physical functioning, mean (SD) / Change in SF-36 Role-emotional, mean (SD) / Change in SF-36 Role-physical, mean (SD) / Change in SF-36 Social functioning, mean (SD) / Change in SF-36 Vitality, mean (SD) / Change in WHO functional class: +1 class / Change in WHO functional class: +2 classes / Change in WHO functional class: no change / Change in WHO functional class: −1 class / Change in WHO functional class: −2 classes: baseline to Week 12
Protocol: The primary objective of this study was to determine the effect of ambrisentan on exercise capacity in subjects with PAH. The secondary objectives of this study were to evaluate effects of ambrisentan on other clinical measures of PAH, as well as safety and tolerability of the study drug.
Study drug was provided in round, biconvex, oral tablets that were identical in appearance. Three strengths of active study drug, containing 1 mg, 2.5 mg or 5 mg of ambrisentan, were used in this study. All study drug was packaged in blister cards. Subjects were instructed to take study drug once daily (q.d.) by mouth (p.o.) in the morning, with or without food.
The maximum study duration was up to 14 weeks from the time of initial screening procedures to the final study visit (Week 12). Screening procedures were performed a maximum of 2 weeks prior to the first dose of study drug. The maximum duration of study drug treatment was 12 weeks.
Men and women, 18 years of age or older, with idiopathic PAH, PAH associated with connective tissue disease (CTD), e.g., mixed CTD, CREST syndrome, systemic sclerosis (scleroderma), overlap syndrome or systemic lupus erythematosus, or PAH associated with anorexigen use or HIV infection were enrolled in this study. Subjects were to have a documented mean PAP≧25 mmHg, PVR>3 mmHg/L/min, and PCWP or LVEDP<15 mmHg. Subjects must have been able to walk a distance of at least 150 m but no more than 450 m during 2 consecutive 6MWTs to be eligible for inclusion in the study.
After a 2 week screening period, eligible subjects were stratified based on the underlying etiology of PAH (idiopathic or non-idiopathic) and were randomized to 1 of 3 treatment groups (placebo, 2.5 mg or 5 mg ambrisentan) in a ratio of 1:1:1. One blinded dose reduction was permitted during the 12-week treatment period in the event of study drug intolerance (e.g., 5 mg to 2.5 mg, 2.5 mg to 1 mg, placebo to placebo). Subjects received a daily dose of 1 mg ambrisentan only if they reduced from the 2.5 mg dose group. Subjects were assessed for efficacy and safety at monthly intervals.
Therefore, after a minimum treatment period of 4 weeks, subjects who met 2 or more of the following predefined early escape criteria may have been removed from the study: • (a) a decrease from baseline of at least 20% in 6MWD; • (b) an increase of 1 or more WHO functional class; • (c) worsening right ventricular failure (e.g., as indicated by increased jugular venous pressure, new or worsening hepatomegaly, ascites or peripheral edema); • (d) rapidly progressing cardiogenic, hepatic or renal failure; and/or • (e) refractory systolic hypotension (systolic blood pressure <85 mmHg).
The primary efficacy endpoint was change from baseline in 6MWD evaluated after 12 weeks of treatment compared to placebo.
The secondary efficacy endpoints included: • (a) time to clinical worsening of PAH, as defined by the time from randomization to the first occurrence of death, lung transplantation, hospitalization for PAH, atrial septostomy, study discontinuation due to addition of other PAH therapeutic agents, or study discontinuation due to 2 or more early escape criteria; • (b) change from baseline measured after 12 weeks of treatment compared to placebo in: • (i) WHO functional class; • (ii) SF-36® health survey physical functioning scale; • (iii) BDI immediately following exercise; and/or • (iv) an assessment of the safety and tolerability of the study drug; and • (c) change from baseline measured after 12 weeks of treatment compared to placebo in plasma levels of ET-1, cTnT and BNP. Safety Assessments
For the ITT population, subjects were considered as belonging to their randomized treatment group, regardless of the actual treatment received.
The primary efficacy endpoint was the change from baseline in 6MWD evaluated after 12 weeks of treatment compared to placebo, where the last observation was carried forward. […]

[1] = combined 2.5 mg and 5 mg groups
[2] = combined 2.5 mg and 5 mg groups, 12 weeks

## COC(c1ccccc1)(c1ccccc1)[C@H](Oc1nc(C)cc(C)n1)C(=O)O [ambrisentan]
2.5 mg once daily
  placebo-adjusted improvement in mean 6MWD at Week 12: +32.3 m
  subjects at least maintaining their baseline WHO functional class at Week 12: 95.3%
  Change in 6MWD from baseline to Week 12, mean: +22.2 meters
  Week 12 6MWD, mean: 369.6 meters
  Change in SF-36 Bodily pain, mean (SD): +2.34 (11.87)
  Change in SF-36 General health, mean (SD): +3.84 (6.71)
  Change in SF-36 Mental component summary, mean (SD): +4.05 (10.30)
  Change in SF-36 Mental health, mean (SD): +4.98 (9.70)
  Change in SF-36 Physical component summary, mean (SD): +3.78 (7.63)
  Change in SF-36 Physical functioning, mean (SD): +3.86 (7.14)
  Change in SF-36 Role-emotional, mean (SD): +3.11 (12.90)
  Change in SF-36 Role-physical, mean (SD): +5.87 (11.72)
  Change in SF-36 Social functioning, mean (SD): +4.55 (9.72)
  Change in SF-36 Vitality, mean (SD): +4.07 (9.12)
  Change in WHO functional class: +1 class: 2 (3.1) subjects (% of ITT population)
  Change in WHO functional class: +2 classes: 1 (1.6) subjects (% of ITT population)
  Change in WHO functional class: no change: 51 (79.7) subjects (% of ITT population)
  Change in WHO functional class: −1 class: 10 (15.6) subjects (% of ITT population)
  Change in WHO functional class: −2 classes: 0 (0.0) subjects (% of ITT population)
2.5 mg once daily, 12 weeks
  Clinical worsening event: Atrial septostomy: 0 (0.0) subjects (% of ITT population)
  Clinical worsening event: Death: 2 (3.1) subjects (% of ITT population)
  Clinical worsening event: Escape criteria: 2 (3.1) subjects (% of ITT population)
  Clinical worsening event: Hospitalization for PAH: 3 (4.7) subjects (% of ITT population)
  Clinical worsening event: Lung transplantation: 0 (0.0) subjects (% of ITT population)
  Clinical worsening event: Study withdrawal due to addition of PAH treatment: 0 (0.0) subjects (% of ITT population)
  Clinical worsening: Total subjects with ≧1 event: 3 (4.7) subjects (% of ITT population)
  subjects who experienced an event of clinical worsening: 4.7%
2.5 mg once daily, Week 12
  geometric mean percent change in plasma ET-1, increase from baseline: 19%
  geometric mean plasma BNP, decrease from baseline: 29%
  mean BDI change from baseline: −0.20
5 mg once daily
  placebo-adjusted improvement in mean 6MWD at Week 12: +59.4 m
  subjects at least maintaining their baseline WHO functional class at Week 12: 96.8%
  Change in 6MWD from baseline to Week 12, mean: +49.4 meters
  Week 12 6MWD, mean: 404.7 meters
  Change in SF-36 Bodily pain, mean (SD): +0.46 (9.99)
  Change in SF-36 General health, mean (SD): +4.95 (8.05)
  Change in SF-36 Mental component summary, mean (SD): +6.28 (11.64)
  Change in SF-36 Mental health, mean (SD): +4.03 (10.13)
  Change in SF-36 Physical component summary, mean (SD): +2.97 (7.79)
  Change in SF-36 Physical functioning, mean (SD): +2.96 (6.81)
  Change in SF-36 Role-emotional, mean (SD): +8.15 (14.43)
  Change in SF-36 Role-physical, mean (SD): +7.61 (10.41)
  Change in SF-36 Social functioning, mean (SD): +4.85 (11.89)
  Change in SF-36 Vitality, mean (SD): +5.21 (8.79)
  Change in WHO functional class: +1 class: 2 (3.2) subjects (% of ITT population)
  Change in WHO functional class: +2 classes: 0 (0.0) subjects (% of ITT population)
  Change in WHO functional class: no change: 52 (82.5) subjects (% of ITT population)
  Change in WHO functional class: −1 class: 8 (12.7) subjects (% of ITT population)
  Change in WHO functional class: −2 classes: 1 (1.6) subjects (% of ITT population)
5 mg once daily, 12 weeks
  Clinical worsening event: Atrial septostomy: 0 (0.0) subjects (% of ITT population)
  Clinical worsening event: Death: 0 (0.0) subjects (% of ITT population)
  Clinical worsening event: Escape criteria: 1 (1.6) subjects (% of ITT population)
  Clinical worsening event: Hospitalization for PAH: 2 (3.2) subjects (% of ITT population)
  Clinical worsening event: Lung transplantation: 0 (0.0) subjects (% of ITT population)
  Clinical worsening event: Study withdrawal due to addition of PAH treatment: 0 (0.0) subjects (% of ITT population)
  Clinical worsening: Total subjects with ≧1 event: 3 (4.8) subjects (% of ITT population)
  subjects hospitalized for worsening right heart failure: 1 subjects
  subjects who experienced an event of clinical worsening: 4.8%
5 mg once daily, Week 12
  geometric mean percent change in plasma ET-1, increase from baseline: 72%
  geometric mean plasma BNP, decrease from baseline: 30%
  mean BDI change from baseline: −0.36
South American subgroup, 2.5 mg once daily
  placebo-adjusted 6MWD change from baseline at Week 12: +50.5 m
South American subgroup, 5 mg once daily
  placebo-adjusted 6MWD change from baseline at Week 12: +79.5 m
WHO class I/II subgroup, 2.5 mg once daily
  placebo-adjusted 6MWD change from baseline at Week 12: +44.1 m
WHO class I/II subgroup, 5 mg once daily
  placebo-adjusted 6MWD change from baseline at Week 12: +67.7 m
WHO class III/IV subgroup, 2.5 mg once daily
  placebo-adjusted 6MWD change from baseline at Week 12: +17.6 m
WHO class III/IV subgroup, 5 mg once daily
  placebo-adjusted 6MWD change from baseline at Week 12: +51.8 m
[1]
  placebo-adjusted BDI at Week 12: −1.1
  Change in 6MWD from baseline to Week 12, mean: +35.7 meters
  Week 12 6MWD, mean: 387.0 meters
  Change in SF-36 Bodily pain, mean (SD): +1.40 (10.96)
  Change in SF-36 General health, mean (SD): +4.40 (7.40)
  Change in SF-36 Mental component summary, mean (SD): +5.17 (11.00)
  Change in SF-36 Mental health, mean (SD): +4.50 (9.88)
  Change in SF-36 Physical component summary, mean (SD): +3.38 (7.69)
  Change in SF-36 Role-emotional, mean (SD): +5.63 (13.86)
  Change in SF-36 Role-physical, mean (SD): +6.74 (11.07)
  Change in SF-36 Social functioning, mean (SD): +4.70 (10.81)
  Change in SF-36 Vitality, mean (SD): +4.64 (8.94)
  Change in WHO functional class: +1 class: 4 (3.1) subjects (% of ITT population)
  Change in WHO functional class: +2 classes: 1 (0.8) subjects (% of ITT population)
  Change in WHO functional class: no change: 103 (81.1) subjects (% of ITT population)
  Change in WHO functional class: −1 class: 18 (14.2) subjects (% of ITT population)
  Change in WHO functional class: −2 classes: 1 (0.8) subjects (% of ITT population)
[2]
  Clinical worsening event: Atrial septostomy: 0 (0.0) subjects (% of ITT population)
  Clinical worsening event: Death: 2 (1.6) subjects (% of ITT population)
  Clinical worsening event: Escape criteria: 3 (2.4) subjects (% of ITT population)
  Clinical worsening event: Hospitalization for PAH: 5 (3.9) subjects (% of ITT population)
  Clinical worsening event: Lung transplantation: 0 (0.0) subjects (% of ITT population)
  Clinical worsening event: Study withdrawal due to addition of PAH treatment: 0 (0.0) subjects (% of ITT population)
  Clinical worsening: Total subjects with ≧1 event: 6 (4.7) subjects (% of ITT population)
Combined 2.5 mg and 5 mg groups, Week 12
  subjects who deteriorated by at least 1 WHO class: 3.9%
Eastern European subgroup, 2.5 mg once daily
  placebo-adjusted 6MWD change from baseline at Week 12: +66.1 m
Eastern European subgroup, 5 mg once daily
  placebo-adjusted 6MWD change from baseline at Week 12: +88.0 m
Female subjects, 2.5 mg once daily
  placebo-adjusted 6MWD change from baseline at Week 12: +42.5 m
Female subjects, 5 mg once daily
  placebo-adjusted 6MWD change from baseline at Week 12: +75.7 m
Idiopathic PAH subgroup, 2.5 mg once daily
  placebo-adjusted 6MWD change from baseline at Week 12: +56.3 m
Idiopathic PAH subgroup, 5 mg once daily
  placebo-adjusted 6MWD change from baseline at Week 12: +75.7 m
Male subjects, 2.5 mg once daily
  placebo-adjusted 6MWD change from baseline at Week 12: +6.8 m
Male subjects, 5 mg once daily
  placebo-adjusted 6MWD change from baseline at Week 12: +2.7 m
non-idiopathic PAH subgroup, 2.5 mg once daily
  placebo-adjusted 6MWD change from baseline at Week 12: −12.6 m
non-idiopathic PAH subgroup, 5 mg once daily
  placebo-adjusted 6MWD change from baseline at Week 12: +29.5 m
Subjects receiving ambrisentan (combined group), 12 weeks
  reduction in the probability of clinical worsening (hazard ratio) compared to placebo: 80%
Subjects receiving ambrisentan (combined), 12 weeks
  subjects hospitalized for PAH: 3.9%
Western European/Israel subgroup, 2.5 mg once daily
  placebo-adjusted 6MWD change from baseline at Week 12: +3.0 m
Western European/Israel subgroup, 5 mg once daily
  placebo-adjusted 6MWD change from baseline at Week 12: +39.4 m

— patent publication US9504685B2, “Method for treating a pulmonary hypertension condition” (Gilead Sciences, Inc., priority 2006, dated 2016)
